# Data published in patent US10670605B2, “Cysteine reactive probes and uses thereof” (The Scripps Research Institute, priority 2015, dated 2020).
# How the values were obtained:
# Assay in all cases: Competitive isoTOP-ABPP, cell lysates
# Type in all cases: binding
# GSTP1 C48 (P09211) = GSTP1 C48 (P09211) (Homo sapiens, UniProt P09211); conditions: for R value (DMSO/fragment) / isoTOP-ABPP ratio, P09211_C48: 500 μM
# DCUN1D1 C115 (Q96GG9) = DCUN1D1 C115 (Q96GG9) (Homo sapiens, UniProt Q96GG9); conditions: for R value (DMSO/fragment) / isoTOP-ABPP ratio, Q96GG9_C115: 500 μM, invitro
# AIP C122 (O00170) = biological target: T1, AIP C122 (O00170) (Homo sapiens, UniProt O00170); conditions: for R value (DMSO/fragment) / isoTOP-ABPP ratio, O00170_C122: 500 μM; for isoTOP-ABPP ratio (reactivity profile), O00170_C122: 500 μm in-vitro ramos
# T1 sequence (O00170 1-330): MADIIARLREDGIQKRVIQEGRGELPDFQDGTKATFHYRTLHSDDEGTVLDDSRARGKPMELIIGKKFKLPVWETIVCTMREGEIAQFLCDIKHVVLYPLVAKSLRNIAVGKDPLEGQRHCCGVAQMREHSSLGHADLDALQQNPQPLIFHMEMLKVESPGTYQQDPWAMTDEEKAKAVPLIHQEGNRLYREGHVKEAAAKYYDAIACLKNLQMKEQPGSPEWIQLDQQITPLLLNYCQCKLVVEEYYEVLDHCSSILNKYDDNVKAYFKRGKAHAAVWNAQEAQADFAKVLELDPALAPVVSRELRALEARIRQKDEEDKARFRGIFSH
# PDIA6 C55 (Q15084) = biological target: T2, PDIA6 C55 (Q15084) (Homo sapiens, UniProt Q15084); conditions: for R value (DMSO/fragment) / isoTOP-ABPP ratio Q15084_C55: 500 μM
# T2 sequence (Q15084 20-440): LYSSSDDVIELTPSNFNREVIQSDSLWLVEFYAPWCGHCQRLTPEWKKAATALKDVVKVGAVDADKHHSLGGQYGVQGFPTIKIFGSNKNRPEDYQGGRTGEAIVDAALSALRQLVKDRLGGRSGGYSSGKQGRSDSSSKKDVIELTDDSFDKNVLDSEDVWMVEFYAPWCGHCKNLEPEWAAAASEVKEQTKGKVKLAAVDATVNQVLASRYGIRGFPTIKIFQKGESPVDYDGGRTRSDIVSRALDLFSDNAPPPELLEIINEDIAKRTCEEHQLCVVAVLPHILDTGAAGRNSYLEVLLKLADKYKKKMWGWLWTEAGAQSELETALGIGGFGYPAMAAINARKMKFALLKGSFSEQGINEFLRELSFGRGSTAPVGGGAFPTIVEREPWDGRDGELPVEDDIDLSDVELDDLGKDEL
# MGMT C150 (P16455) = biological target: T3, MGMT C150 (P16455) (Homo sapiens, UniProt P16455); conditions: for R value (DMSO/fragment) / isoTOP-ABPP ratio, P16455_C150: 500 μM, invitro, ramos; for isoTOP-ABPP ratio (reactivity profile), P16455_C150: 500 μm in-vitro ramos
# T3 sequence (P16455 1-207): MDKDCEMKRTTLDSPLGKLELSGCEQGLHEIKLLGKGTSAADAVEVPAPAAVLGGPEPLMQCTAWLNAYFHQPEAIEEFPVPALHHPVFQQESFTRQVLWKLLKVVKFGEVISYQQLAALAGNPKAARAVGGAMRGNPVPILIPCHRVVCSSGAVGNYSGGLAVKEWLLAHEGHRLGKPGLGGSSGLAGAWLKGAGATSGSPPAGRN
# XPO1 C528 (O14980) = XPO1 C528 (O14980) (Homo sapiens, UniProt O14980); conditions: for R value (DMSO/fragment) / isoTOP-ABPP ratio O14980_C528: 500 μM
# IDH1 C269 (O75874) = IDH1 C269 (O75874) (Homo sapiens, UniProt O75874); conditions: for isoTOP-ABPP ratio (reactivity profile), O75874_C269: 500 μm in-vitro ramos
# GNB2L1 C182 (P63244) = GNB2L1 C182 (P63244) (Homo sapiens, UniProt P63244); conditions: for R value (DMSO/fragment) / isoTOP-ABPP ratio, P63244_C182: 500 μM
# Chain of GSTP1 C48 (P09211) (P09211 whole entry, the tested form may be a part): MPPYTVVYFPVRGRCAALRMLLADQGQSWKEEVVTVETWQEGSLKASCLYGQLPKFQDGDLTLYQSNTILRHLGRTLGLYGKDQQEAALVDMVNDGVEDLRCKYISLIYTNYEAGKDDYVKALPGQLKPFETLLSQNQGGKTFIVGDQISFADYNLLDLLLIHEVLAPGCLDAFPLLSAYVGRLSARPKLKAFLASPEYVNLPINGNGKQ
# Chain of IDH1 C269 (O75874) (O75874 whole entry, the tested form may be a part): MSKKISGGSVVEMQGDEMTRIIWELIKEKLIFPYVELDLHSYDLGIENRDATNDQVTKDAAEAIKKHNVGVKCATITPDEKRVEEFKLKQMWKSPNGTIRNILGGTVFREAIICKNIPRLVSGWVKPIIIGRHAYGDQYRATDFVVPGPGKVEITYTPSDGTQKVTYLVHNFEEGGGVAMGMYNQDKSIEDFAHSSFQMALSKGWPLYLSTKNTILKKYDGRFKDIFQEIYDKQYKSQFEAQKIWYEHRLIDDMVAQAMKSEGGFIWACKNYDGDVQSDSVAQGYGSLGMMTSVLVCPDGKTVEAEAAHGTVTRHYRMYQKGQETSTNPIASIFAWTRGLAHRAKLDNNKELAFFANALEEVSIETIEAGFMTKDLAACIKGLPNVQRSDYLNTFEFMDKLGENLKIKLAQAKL
# Chain of XPO1 C528 (O14980) (O14980 whole entry, the tested form may be a part): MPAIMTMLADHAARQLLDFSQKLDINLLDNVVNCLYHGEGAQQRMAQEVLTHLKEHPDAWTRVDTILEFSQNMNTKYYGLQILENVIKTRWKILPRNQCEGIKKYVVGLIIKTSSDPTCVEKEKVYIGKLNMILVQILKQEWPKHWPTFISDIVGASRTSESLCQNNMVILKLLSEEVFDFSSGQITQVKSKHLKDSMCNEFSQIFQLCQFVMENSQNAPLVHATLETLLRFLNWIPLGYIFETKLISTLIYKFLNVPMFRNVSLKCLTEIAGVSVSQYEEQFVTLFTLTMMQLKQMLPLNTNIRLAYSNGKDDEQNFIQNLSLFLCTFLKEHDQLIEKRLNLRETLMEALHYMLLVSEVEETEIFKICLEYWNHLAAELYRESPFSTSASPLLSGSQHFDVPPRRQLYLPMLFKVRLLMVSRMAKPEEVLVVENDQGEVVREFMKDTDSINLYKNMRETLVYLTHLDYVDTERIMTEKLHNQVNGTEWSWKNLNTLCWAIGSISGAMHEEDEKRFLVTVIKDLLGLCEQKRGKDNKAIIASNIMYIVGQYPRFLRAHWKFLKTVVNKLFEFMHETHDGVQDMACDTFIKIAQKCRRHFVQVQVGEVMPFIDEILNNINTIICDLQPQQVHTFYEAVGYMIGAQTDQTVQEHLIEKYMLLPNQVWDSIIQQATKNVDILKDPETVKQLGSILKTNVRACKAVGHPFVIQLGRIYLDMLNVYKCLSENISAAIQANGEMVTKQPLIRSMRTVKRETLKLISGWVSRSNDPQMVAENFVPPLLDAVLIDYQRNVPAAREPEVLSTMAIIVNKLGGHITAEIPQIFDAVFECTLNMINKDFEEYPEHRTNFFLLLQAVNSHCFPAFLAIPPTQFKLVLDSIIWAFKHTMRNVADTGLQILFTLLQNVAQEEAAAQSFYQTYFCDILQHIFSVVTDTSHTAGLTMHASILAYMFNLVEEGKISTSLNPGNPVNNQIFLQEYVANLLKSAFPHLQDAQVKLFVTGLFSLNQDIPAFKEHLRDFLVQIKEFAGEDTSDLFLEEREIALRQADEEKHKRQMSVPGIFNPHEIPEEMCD
# Chain of DCUN1D1 C115 (Q96GG9) (Q96GG9 whole entry, the tested form may be a part): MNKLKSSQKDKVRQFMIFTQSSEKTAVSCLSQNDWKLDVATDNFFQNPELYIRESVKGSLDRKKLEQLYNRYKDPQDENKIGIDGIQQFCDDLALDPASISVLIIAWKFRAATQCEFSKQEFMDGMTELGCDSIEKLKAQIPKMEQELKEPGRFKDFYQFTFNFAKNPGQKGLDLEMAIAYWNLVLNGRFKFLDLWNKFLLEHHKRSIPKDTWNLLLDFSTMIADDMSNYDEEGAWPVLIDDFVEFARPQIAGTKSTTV
smiles,measurement,setting,value
COc1ccc2c(c1)CCCN2C(=O)CCl [compound 2],R value (DMSO/fragment),"GSTP1 C48 (P09211); in vitro, MDA-MB-231",3.1
same,R value (DMSO/fragment),"GSTP1 C48 (P09211); invitro, ramos",1.6
same,R value (DMSO/fragment),DCUN1D1 C115 (Q96GG9); ramos,20.0
same,R value (DMSO/fragment),"AIP C122 (O00170); in vitro, MDA-MB-231",12.5
same,R value (DMSO/fragment),"AIP C122 (O00170); invitro, ramos",6.7
same,R value (DMSO/fragment),"PDIA6 C55 (Q15084); in vitro, MDA-MB-231",6.3
same,R value (DMSO/fragment),"PDIA6 C55 (Q15084); invitro, ramos",7.1
same,R value (DMSO/fragment),MGMT C150 (P16455),20.0
same,R value (DMSO/fragment),"XPO1 C528 (O14980); in vitro, MDA-MB-231",4.9
same,R value (DMSO/fragment),"XPO1 C528 (O14980); invitro, ramos",3.1
same,R value (DMSO/fragment),"IDH1 C269 (O75874); 500 μM, in vitro, MDA-MB-231",20.0
same,R value (DMSO/fragment),"GNB2L1 C182 (P63244); in vitro, MDA-MB-231",1.2
same,R value (DMSO/fragment),"GNB2L1 C182 (P63244); invitro, ramos",1.2
O=C(CCl)Nc1cc(C(F)(F)F)cc(C(F)(F)F)c1 [compound 3],R value (DMSO/fragment),"GSTP1 C48 (P09211); in vitro, MDA-MB-231",2.9
same,R value (DMSO/fragment),"GSTP1 C48 (P09211); invitro, ramos",1.7
same,R value (DMSO/fragment),DCUN1D1 C115 (Q96GG9); ramos,5.5
same,R value (DMSO/fragment),"AIP C122 (O00170); in vitro, MDA-MB-231",7.0
same,R value (DMSO/fragment),"AIP C122 (O00170); invitro, ramos",3.1
same,R value (DMSO/fragment),"PDIA6 C55 (Q15084); in vitro, MDA-MB-231",17.9
same,R value (DMSO/fragment),"PDIA6 C55 (Q15084); invitro, ramos",14.9
same,R value (DMSO/fragment),MGMT C150 (P16455),17.1
same,R value (DMSO/fragment),"XPO1 C528 (O14980); in vitro, MDA-MB-231",20.0
same,R value (DMSO/fragment),"XPO1 C528 (O14980); invitro, ramos",20.0
same,R value (DMSO/fragment),"IDH1 C269 (O75874); 500 μM, in vitro, MDA-MB-231",20.0
same,R value (DMSO/fragment),"IDH1 C269 (O75874); 500 μM, invitro, ramos",1.0
same,R value (DMSO/fragment),"GNB2L1 C182 (P63244); in vitro, MDA-MB-231",20.0
same,R value (DMSO/fragment),"GNB2L1 C182 (P63244); invitro, ramos",4.7
O=C(CCl)N1CCN(S(=O)(=O)c2ccccc2F)CC1 [compound 10],"isoTOP-ABPP ratio, P09211_C48","GSTP1 C48 (P09211); invitro, 231",1.4
same,"isoTOP-ABPP ratio, P09211_C48","GSTP1 C48 (P09211); invitro, ramos",0.8
same,"isoTOP-ABPP ratio, Q96GG9_C115",DCUN1D1 C115 (Q96GG9); 231,1.3
same,"isoTOP-ABPP ratio, Q96GG9_C115",DCUN1D1 C115 (Q96GG9); ramos,1.0
same,"isoTOP-ABPP ratio, O00170_C122","AIP C122 (O00170); invitro, ramos",1.7
same,isoTOP-ABPP ratio Q15084_C55,"PDIA6 C55 (Q15084); invitro, 231",20.0
same,"isoTOP-ABPP ratio, P16455_C150",MGMT C150 (P16455),20.0
same,isoTOP-ABPP ratio O14980_C528,"XPO1 C528 (O14980); invitro, 231",0.8
same,"isoTOP-ABPP ratio, O75874_C269","IDH1 C269 (O75874); 500 μM, invitro, 231",20.0
same,"isoTOP-ABPP ratio, P63244_C182","GNB2L1 C182 (P63244); invitro, 231",1.1
same,"isoTOP-ABPP ratio, P63244_C182","GNB2L1 C182 (P63244); invitro, ramos",1.1
Cn1cc(S(=O)(=O)N2CCOCC2)cc1C(=O)NC(=O)CCl [compound 11],"isoTOP-ABPP ratio, P09211_C48","GSTP1 C48 (P09211); invitro, 231",1.7
same,"isoTOP-ABPP ratio, P09211_C48","GSTP1 C48 (P09211); invitro, ramos",1.1
same,"isoTOP-ABPP ratio, Q96GG9_C115",DCUN1D1 C115 (Q96GG9); ramos,0.9
same,"isoTOP-ABPP ratio, O00170_C122","AIP C122 (O00170); invitro, ramos",2.8
same,isoTOP-ABPP ratio Q15084_C55,"PDIA6 C55 (Q15084); invitro, 231",20.0
same,isoTOP-ABPP ratio Q15084_C55,"PDIA6 C55 (Q15084); invitro, ramos",20.0
same,"isoTOP-ABPP ratio, P16455_C150",MGMT C150 (P16455),20.0
same,isoTOP-ABPP ratio O14980_C528,"XPO1 C528 (O14980); invitro, 231",1.0
same,isoTOP-ABPP ratio O14980_C528,"XPO1 C528 (O14980); invitro, ramos",0.7
same,"isoTOP-ABPP ratio, O75874_C269","IDH1 C269 (O75874); 500 μM, invitro, 231",1.1
same,"isoTOP-ABPP ratio, O75874_C269","IDH1 C269 (O75874); 500 μM, invitro, ramos",0.7
same,"isoTOP-ABPP ratio, P63244_C182","GNB2L1 C182 (P63244); invitro, 231",1.0
same,"isoTOP-ABPP ratio, P63244_C182","GNB2L1 C182 (P63244); invitro, ramos",1.1
C=CC(=O)N(Cc1cccnc1)c1ccc(Oc2ccccc2)c(C(F)(F)F)c1 [compound 15],"isoTOP-ABPP ratio, P09211_C48","GSTP1 C48 (P09211); invitro, 231",2.5
same,"isoTOP-ABPP ratio (reactivity profile), P09211_C48",GSTP1 C48 (P09211); 500 μm in-vitro ramos,1.3
same,"isoTOP-ABPP ratio (reactivity profile), Q96GG9_C115",DCUN1D1 C115 (Q96GG9); 500 μm in-vitro ramos,0.8
same,"isoTOP-ABPP ratio (reactivity profile), O00170_C122",AIP C122 (O00170),1.4
same,isoTOP-ABPP ratio Q15084_C55,"PDIA6 C55 (Q15084); invitro, 231",0.8
same,"isoTOP-ABPP ratio (reactivity profile), Q15084_C55",PDIA6 C55 (Q15084); 500 μm in-vitro ramos,1.0
same,"isoTOP-ABPP ratio (reactivity profile), P16455_C150",MGMT C150 (P16455),1.9
same,isoTOP-ABPP ratio O14980_C528,"XPO1 C528 (O14980); invitro, 231",0.8
same,"isoTOP-ABPP ratio (reactivity profile), O14980_C528",XPO1 C528 (O14980); 500 μm in-vitro ramos,1.0
same,"isoTOP-ABPP ratio (reactivity profile), O75874_C269",IDH1 C269 (O75874),0.6
same,"isoTOP-ABPP ratio (reactivity profile), P63244_C182",GNB2L1 C182 (P63244); 500 μm in-vitro ramos,1.3
O=C(CCl)N1CCC(C(O)(c2ccccc2)c2ccccc2)CC1 [compound 20],"isoTOP-ABPP ratio (reactivity profile), P09211_C48",GSTP1 C48 (P09211); 500 μm in-vitro ramos,1.1
same,"isoTOP-ABPP ratio (reactivity profile), P09211_C48",GSTP1 C48 (P09211); 500 μm in-vitro ramos_231,2.5
same,"isoTOP-ABPP ratio (reactivity profile), Q96GG9_C115",DCUN1D1 C115 (Q96GG9); 500 μm in-vitro ramos,1.2
same,"isoTOP-ABPP ratio (reactivity profile), Q96GG9_C115",DCUN1D1 C115 (Q96GG9); 500 μm in-vitro ramos_231,1.2
same,"isoTOP-ABPP ratio (reactivity profile), O00170_C122",AIP C122 (O00170),2.2
same,"isoTOP-ABPP ratio (reactivity profile), Q15084_C55",PDIA6 C55 (Q15084); 500 μm in-vitro ramos,2.0
same,"isoTOP-ABPP ratio (reactivity profile), Q15084_C55",PDIA6 C55 (Q15084); 500 μm in-vitro ramos_231,1.7
same,"isoTOP-ABPP ratio (reactivity profile), P16455_C150",MGMT C150 (P16455),18.3
same,"isoTOP-ABPP ratio (reactivity profile), O14980_C528",XPO1 C528 (O14980); 500 μm in-vitro ramos,4.0
same,"isoTOP-ABPP ratio (reactivity profile), O14980_C528",XPO1 C528 (O14980); 500 μm in-vitro ramos_231,1.4
same,R value (DMSO/fragment),"IDH1 C269 (O75874); 25 μM, endogenous IDH1, MDA-MB-231 proteome",20
same,"isoTOP-ABPP ratio (reactivity profile), O75874_C269",IDH1 C269 (O75874),0.6
same,"isoTOP-ABPP ratio (reactivity profile), P63244_C182",GNB2L1 C182 (P63244); 500 μm in-vitro ramos,1.1
same,"isoTOP-ABPP ratio (reactivity profile), P63244_C182",GNB2L1 C182 (P63244); 500 μm in-vitro ramos_231,1.4
